Assay results published in patent US8106218B2, “Pharmaceutical compounds” (Neuroscienze Pharmaness S.C. A R.L., priority 2004, dated 2012).
Like-named read-outs stand apart in the source and are kept apart here.

Experiments:
[1] = biological target: T1, cannabinoidergic CB2 receptors (Rattus norvegicus, UniProt Q9QZN9); assay: Radioreceptorial binding, [3H]-CP-55,940 competition, rat spleen membranes; details: rat spleen membranes, 1 nM [3H]-CP55,940; read-out: CB2 (spleen) Ki
T1 construct: the brain in toto (cerebellum excluded) and the spleen were rapidly dissected and maintained in ice; from tissue; host or cells: rat spleen, membrane preparation
T1 sequence (Q9QZN9 1-360): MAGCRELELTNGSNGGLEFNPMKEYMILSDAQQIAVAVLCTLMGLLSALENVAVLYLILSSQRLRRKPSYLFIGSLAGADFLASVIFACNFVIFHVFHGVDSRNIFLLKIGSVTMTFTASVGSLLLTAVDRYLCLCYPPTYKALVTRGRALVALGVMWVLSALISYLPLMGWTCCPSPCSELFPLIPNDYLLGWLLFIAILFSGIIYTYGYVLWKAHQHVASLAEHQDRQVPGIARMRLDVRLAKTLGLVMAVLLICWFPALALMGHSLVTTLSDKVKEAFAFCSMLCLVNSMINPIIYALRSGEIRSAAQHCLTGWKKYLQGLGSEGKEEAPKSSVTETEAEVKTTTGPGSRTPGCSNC
Experimental: (§1) The affinity of the synthesized compounds towards the cannabinoidergic CB1 and CB2 receptors was evaluated in vitro through radioreceptorial binding studies by utilizing the following method.
(§2) The receptorial binding technique allows indeed to establish if and with what affinity and specificity a determined compound binds itself to a particular receptor. To evaluate the possible affinity of a determined compound towards a particular receptor it is necessary to make to compete (in a particular preparation of the tissue in which those determined receptors are present) the compound to be tested with another compound whose affinity is known and whose molecule was rendered radioactive. […] The reading of the radioactivity present in the receptor-compound complex allows furthermore to calculate with extreme precision the amount of compound bound to the receptor. […] By repeating the same experimental scheme it is possible to evaluate the affinity of the compound towards other kinds of receptors and establish then the specificity degree.
(§3) Food and water were available ad libitum.
(§4) The animals were sacrificed by cervical dislocation, the brain in toto (cerebellum excluded) and the spleen were rapidly dissected and maintained in ice.
(§5) The tissue was homogenized in 15 volumes (weight/volume) of TME buffer (50 mM Tris, 1 mM EDTA e 3 mM MgCl2, pH 7.4) by an Ultra-Turrax and centrifuged for 10 minutes at 1086×g in a centrifuge cooled at 4° C. The resulting supernatant was centrifuged at 45,000×g for 30 min at 4° C. by using a Beckman SW41 rotor and the final pellet was resuspended in 50 volumes of TME.
(§6) The obtained membranes (50-80 μg of proteins) were incubated in the presence of 1 nM di[^3H]-CP55,940 for 1 h at 30° C. in a final volume of 0.5 ml of TME buffer containing 5 mg/ml of bovine serum albumin (BSA). The non specific binding was measured in the presence of CP55,940 at the 1 μM concentration.
(§7) All the experiments were carried out in polypropylene test tubes pretreated with Sigma-Cote (Sigma Chemical Co. Ltd., Poole, UK) to reduce the non specific binding.
(§8) For the building of the competitive inhibition binding curves eight different concentrations of each compound were used.
(§9) Incubation was interrupted by addition of TME buffer (at 4° C.) containing 5 mg/ml of BSA and filtration under vacuum through Whatman GFC filters pretreated with 0.5% of polyethylamine (PEI) and by using a filtering apparatus (Brandell, Gaithersburg, Md., USA). Filters were washed 3 times with 5 ml of Tris HCl buffer (pH 7.4, 4° C.) containing 1 mg/ml of BSA and singly placed in plastic vials containing 4 ml of scintillating liquid (Ultima Gold MV, Packard).
(§10) The radioactivity present in the filters was measured by a scintillator spectrophotometer (Tricarb 2100, Packard, Meridien, USA).
(§11) The protein determination was carried out by the Bradford method by using the protocol and the reactants supplied by Bio-Rad (Milano, Italia).
(§12) The affinity of the compounds towards the CB1 and CB2 receptors was expressed in Ki terms.

[2] = biological target: T2, cannabinoidergic CB1 receptors (Rattus norvegicus, UniProt P20272); assay: Radioreceptorial binding, [3H]-CP-55,940 competition, rat brain membranes; details: rat brain membranes, 1 nM [3H]-CP55,940; read-out: CB1 (brain) Ki
T2 construct: the brain in toto (cerebellum excluded) and the spleen were rapidly dissected and maintained in ice; from tissue; host or cells: rat brain (cerebellum excluded), membrane preparation
Experimental: as §1, §2, §3, §4, §5, §6, §7, §8, §9, §10, §11, §12

rat [3] = assay: Hypothermia test in vivo, antagonism of the hypothermia induced by WIN 55,212-2; details: for antagonist activity towards the hypothermia induced by WIN 55,212-2, in words: compound i.p. 30 min before WIN 55,212-2 (3 mg/kg)
Experimental: The rectal temperature in the rat was determined by an electronic thermometer inserted at a 2 mm depth. The measurements were carried out on rats acclimated for one hour. The rectal temperature was determined before and after (from 30 to 120 minutes) the i.p. administration of the compound to be tested.

rat [4] = details: for passage of the hemato-encephalic barrier: concluded from the hypothermia tests; for effect on body temperature (hypothermia) of the compound alone, in words: i.p., up to 120 min
Experimental: The rectal temperature in the rat was determined by an electronic thermometer inserted at a 2 mm depth. The measurements were carried out on rats acclimated for one hour. […]
Each test was repeated on ten animals; the reported results are the average of the results obtained with the ten animals.

rat intestinal motility [5] = assay: Intestinal motility, Upper Gut Transit Test, compound alone; assay type: in vivo; details: control 50%
Experimental: (§13) To evaluate the activity in vivo of the compounds (I) object of the present invention, functional tests were carried out directed to the evaluation of the effect of said compounds on the rat intestinal motility. It was indeed shown the involvement of the cannabinoidergic CB1 receptors in the intestinal motility regulation in rat (R. G. Pertwee et al; Br. J. Pharmacol.; 1996, 118, 2199-2205). In particular, the CB1 receptor agonists slacken the gastrointestinal motility; antagonist compounds of the same receptors have instead a prokinetic effect on the gastrointestinal transit (G. Colombo et al.; Eur. J. Pharmacol.; 1998, 344, 67-69; M. A. Casu et al.; Eur. J. Pharmacol.; 2003, 459, 97-105).
(§14) The evaluation of the constipating or prokinetic effect of the compounds was carried out by the Upper Gut Transit Test method on the basis of the procedure defined and ratified by Y. Nagakura et al.; Eur. J. Pharmacol.; 1996, 311, 67-72. The method, which allows to measure the motility of the stomach and of the first intestine tract (small or little intestine), requires: • the administration of the compound to be tested by i.p. route; • the administration of carmine red (marker not directly absorbable from the stomach) by intragastric route through a metal probe, after 20 minutes from the administration of the compound to be tested; • the rat sacrifice by cervical dislocation after a pre-fixed time (30 minutes) starting from the administration time; • the intestine explant from pylorus to the ileo-cecal valve; • the determination of the intestinal part crossed by the marker; • the data processing to determine the percentage of crossed part with respect to the total length of the small intestine.
With respect to the control (physiological solution or carrier wherein the compounds to be tested were solubilized or dispersed), the administration of CB1 agonist compounds implies an intestinal transit percentage reduction; an opposite effect is noticed in case of antagonist compounds. The latter are therefore capable to cancel the constipating effect of CB1 agonist compounds.
Each test was repeated on ten animals; the results reported in the Examples are the average of the results obtained with ten animals.

rat intestinal motility [6] = assay: Intestinal motility, Upper Gut Transit Test, antagonism of the constipating action of WIN 55,212-2; assay type: in vivo; details: compound 0.1 mg/kg before WIN 55,212-2 0.5 mg/kg, WIN alone 25%
Experimental: as §13, §14
With respect to the control (physiological solution or carrier wherein the compounds to be tested were solubilized or dispersed), the administration of CB1 agonist compounds implies an intestinal transit percentage reduction; an opposite effect is noticed in case of antagonist compounds. The latter are therefore capable to cancel the constipating effect of CB1 agonist compounds. […]

T2 sequence (P20272 whole entry): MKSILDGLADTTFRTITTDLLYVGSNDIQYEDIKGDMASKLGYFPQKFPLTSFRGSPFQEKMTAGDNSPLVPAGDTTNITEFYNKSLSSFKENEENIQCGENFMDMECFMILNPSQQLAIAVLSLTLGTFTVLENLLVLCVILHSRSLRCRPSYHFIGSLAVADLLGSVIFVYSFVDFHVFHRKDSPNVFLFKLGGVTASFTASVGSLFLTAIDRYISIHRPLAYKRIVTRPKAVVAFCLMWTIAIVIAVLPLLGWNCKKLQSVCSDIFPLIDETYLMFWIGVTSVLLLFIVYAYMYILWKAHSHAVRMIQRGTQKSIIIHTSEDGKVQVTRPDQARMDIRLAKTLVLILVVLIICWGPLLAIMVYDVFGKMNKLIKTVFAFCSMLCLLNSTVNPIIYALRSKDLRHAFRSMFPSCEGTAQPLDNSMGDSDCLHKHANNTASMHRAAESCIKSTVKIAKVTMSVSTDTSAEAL

O=C(NN1CCCCC1)c1nn(-c2ccc(Cl)cc2Cl)c2c1CCc1sc(Cl)cc1-2 [Example 3.1, N-piperidinyl-7-chloro-1-(2′,4′-dichlorophenyl)-4,5-dihydro-1H-thieno[2,3-g]indazol-3-carboxamide]
Ki [1]: 0.0674 ± 0.006 µM
Ki [2]: 0.0443 ± 0.0005 µM

O=C(NN1CCCCC1)c1nn(-c2ccc(Cl)cc2Cl)c2c1CCc1sc(Br)cc1-2 [Example 3.2, N-piperidinyl-7-bromo-1-(2′,4′-dichlorophenyl)-4,5-dihydro-1H-thieno[2,3-g]indazol-3-carboxamide]
Ki [1]: 0.0367 ± 0.005 µM
Body temperature (rat [3]; WIN 55,212-2 (3 mg/kg) + compound (0.1-30 mg/kg), 0 min): 38.0 °C
Body temperature (rat [3]; WIN 55,212-2 (3 mg/kg) + compound (0.1-30 mg/kg), 15 min): 38.0 °C
Body temperature (rat [3]; WIN 55,212-2 (3 mg/kg) + compound (0.1-30 mg/kg), 30 min): 34.0 °C
Body temperature (rat [3]; WIN 55,212-2 (3 mg/kg) + compound (0.1-30 mg/kg), 60 min): 34.5 °C
Body temperature (rat [3]; WIN 55,212-2 (3 mg/kg) + compound (0.1-30 mg/kg), 90 min): 35.8 °C
Body temperature (rat [3]; WIN 55,212-2 (3 mg/kg) + compound (0.1-30 mg/kg), 120 min): 36.8 °C
antagonist activity towards the hypothermia induced by WIN 55,212-2, in words (rat [3]): no variation of the body temperature with respect to the treatment with the only WIN 55,212-2
Body temperature (rat [4]; compound alone 0.1-30 mg/kg i.p., 0 min): 38.0 °C
Body temperature (rat [4]; compound alone 0.1-30 mg/kg i.p., 15 min): 37.9 °C
Body temperature (rat [4]; compound alone 0.1-30 mg/kg i.p., 30 min): 38.0 °C
Body temperature (rat [4]; compound alone 0.1-30 mg/kg i.p., 60 min): 38.2 °C
Body temperature (rat [4]; compound alone 0.1-30 mg/kg i.p., 90 min): 38.1 °C
Body temperature (rat [4]; compound alone 0.1-30 mg/kg i.p., 120 min): 37.9 °C
passage of the hemato-encephalic barrier (rat [4]): not able to pass the hemato-encephalic barrier
effect on body temperature (hypothermia) of the compound alone, in words (rat [4]): In none of the examined cases there was a reduction of the body temperature
Ki [2]: 0.00447 ± 0.00014 µM

O=C(NN1CCCC1)c1nn(-c2ccc(Cl)cc2Cl)c2c1CCc1sc(Br)cc1-2 [Example 3.7, N-pyrrolidinyl-7-bromo-1-(2′,4′-dichlorophenyl)-4,5-dihydro-1H-thieno[2,3-g]indazol-3-carboxamide]
melting point: 227 °C
Ki [1]: 0.195 ± 0.027 µM
Ki [2]: 0.126 ± 0.005 µM

O=C(NN1CCCCCC1)c1nn(-c2ccc(Cl)cc2Cl)c2c1CCc1sc(Br)cc1-2 [Example 3.8, N-homopiperidinyl-7-bromo-1-(2′,4′-dichlorophenyl)-4,5-dihydro-1H-thieno[2,3-g]indazol-3-carboxamide]
melting point: 176 °C
Ki [1]: 0.06 ± 0.001 µM
Ki [2]: 0.0096 ± 0.0017 µM

Cc1cc2c(s1)CCc1c(C(=O)NN3CCCCC3)nn(-c3ccc(Cl)cc3Cl)c1-2 [Example 3.9, N-piperidinyl-7-methyl-1-(2′,4′-dichlorophenyl)-4,5-dihydro-1H-thieno[2,3-g]indazol-3-carboxamide]
melting point: 216 °C
Ki [1]: 0.0551 ± 0.006 µM
passage of the hemato-encephalic barrier (rat [4]): unable to pass the hemato-encephalic barrier
Ki [2]: 0.00788 ± 0.0005 µM

Cc1cc2c(s1)CCc1c(C(=O)NN3CCCCCC3)nn(-c3ccc(Cl)cc3Cl)c1-2 [Example 3.11, N-homopiperidinyl-7-methyl-1-(2′,4′-dichlorophenyl)-4,5-dihydro-1H-thieno[2,3-g]indazol-3-carboxamide]
melting point: 229 °C
Ki [1]: 0.0571 ± 0.005 µM
Ki [2]: 0.057 ± 0.006 µM

Cc1c(C(=O)c2cccc3ccccc23)c2cccc3c2n1[C@H](CN1CCOCC1)CO3 [WIN 55,212-2, reference compound]
intestinal portion run by the marker with respect to the total intestine length (rat intestinal motility [5]; WIN 55,212-2 0.5 mg/kg alone): 25%
Body temperature (rat [4]; WIN 55,212-2 3 mg/kg alone, 0 min from administration): 37.9 °C
Body temperature (rat [4]; WIN 55,212-2 3 mg/kg alone, 15 min): 35.6 °C
Body temperature (rat [4]; WIN 55,212-2 3 mg/kg alone, 30 min): 33.8 °C
Body temperature (rat [4]; WIN 55,212-2 3 mg/kg alone, 60 min): 34.5 °C
Body temperature (rat [4]; WIN 55,212-2 3 mg/kg alone, 90 min): 35.8 °C
Body temperature (rat [4]; WIN 55,212-2 3 mg/kg alone, 120 min): 36.8 °C

N-piperidino-5-(4-chlorophenyl)-1-(2,4-dichlorophenyl)-4-methylpyrazol-3-carboxyamide [SR141716A, reference compound]
intestinal portion run by the marker with respect to the total intestine length (rat intestinal motility [5]; compound 2.5 mg/kg i.p.): 75%
Body temperature (rat [3]; WIN 55,212-2 (3 mg/kg) + compound (0.1 mg/kg), 30 min): 35.3 °C
Body temperature (rat [3]; WIN 55,212-2 (3 mg/kg) + compound (0.1 mg/kg), 60 min): 36.9 °C
Body temperature (rat [3]; WIN 55,212-2 (3 mg/kg) + compound (0.1 mg/kg), 90 min): 37.5 °C
Body temperature (rat [3]; WIN 55,212-2 (3 mg/kg) + compound (0.5 mg/kg), 30 min): 37.0 °C
Body temperature (rat [3]; WIN 55,212-2 (3 mg/kg) + compound (0.5 mg/kg), 60 min): 37.8 °C
Body temperature (rat [3]; WIN 55,212-2 (3 mg/kg) + compound (0.5 mg/kg), 90 min): 37.9 °C
antagonist activity towards the hypothermia induced by WIN 55,212-2, in words (rat [3]): able to antagonize the effect of WIN 55,212-2
passage of the hemato-encephalic barrier (rat [4]): capable to pass the hemato-encephalic barrier
effect on body temperature (hypothermia) of the compound alone, in words (rat [4]): has not implied any variation of the body temperature
intestinal portion run by the marker with respect to the total intestine length (rat intestinal motility [6]): 50%
